The target of one experiment is T1, firefly-Luciferase (Photinus pyralis, UniProt P08659).
T1 construct: purchased Sigma-Aldrich (St. Louis, MO)
Kind of experiment: Luciferase (biochemical) qHTS assay, tox21-luc-biochem-p1, cell-free. As to conditions: for AC50: no unit printed in the picture (text uses µM). From the text:
(§1) Three assay platforms were applied to analyze luciferase and fluorescence interference patterns using the Tox21 chemical screening library. […] The Tox21 chemical library (8,305 unique substances) was screened in triplicate concentration response in all assays, with concurrent cytotoxicity measurements where applicable.
The substrate D-Luciferin and the enzyme firefly-Luciferase were purchased from Sigma-Aldrich (St. Louis, MO). The positive control compound (PTC-124) was purchased from Santa Cruz Biotechnology, Inc. (Dallas, TX).
Three µL of the substrate (mixture containing 50 mM Tris-acetate pH 7.6, 13.3 mM magnesium acetate, 0.01 mM D-luciferin, 0.01 mM ATP, 0.01% Tween, 0.05% BSA and distilled H2O) was dispensed into medium-binding white/solid 1,536-well plates (Greiner Bio-One North America Inc., Monroe, NC) using a Flying Reagent Dispenser, FRD (Aurora Discovery, Carlsbad, CA). Then 23 nL of the test compounds (into 5–48 columns), PTC-124 and/or DMSO (into 1–4 columns) were transferred to the assay plates using a Pintool station (Wako, San Diego, CA). The positive control plate format is, column-1: sixteen-concentration two-fold titration of PTC-124 from 0.035 nM to 1.15 µM with duplicate points; columns-2 & 3 for the top half portions: 0.58 and 1.15 µM PTC-124 respectively and DMSO in the rest. Compound addition was followed by the addition of 1 μl of 10 nM enzyme (mixture containing 50 mM Tris-acetate, 0.04 µM firefly-Luciferase and distilled H2O) by using an FRD to all the wells of assay plate except in the 4th column which received the buffer instead. After 5 min incubation at room temperate, luminescence intensity was measured by a Viewlux plate reader (Perkin Elmer, Waltham, MA). Data were expressed as relative luminescence units. Each test compound was measured at 15 concentrations ranging from 1.5 nM to 115 µM and in triplicate.
For primary data analysis, raw plate reads for each titration point were first normalized relative to DMSO-only wells that received firefly-Luciferase (basal, 0%) and PTC-124 control wells that received firefly-Luciferase (0.58 µM, −100%) and then corrected by applying a pattern correction algorithm using compound-free control plates (DMSO plates). Concentration-response titration points for each compound replicate were fitted to the Hill equation and concentrations of half-maximal inhibition activity (IC50) and maximal response (efficacy) values were calculated; the mean of the IC50s was used as the representative value. Concentration response curves were designated as class 1–4 based on the quality of the fit, the number of points above background, and the response efficacy, as previously described (summarized in Supporting Information Table S1)[18],[20].
(§2) Finally, for autofluorescence assays, to avoid indications of generalized cell stress without specific biomolecular interactions, only AC50 below the burst cutoff defined in[23] were considered. Indeed, activity above this limit may result from triggering cell stress pathways, chemical reactivity, physico-chemical disruption of proteins or membranes, or broad low-affinity non-covalent interactions and not from a specific technology interference reaction. This filter was applied to distinguish chemical-structure driven autofluorescence from the increase in signal that has been observed due to cell stress. The distribution of the curve classes for active chemicals is presented in Supporting Information Fig. S1.

Experiment [1] has as its system HepG2 and HEK-293. Kind of experiment: Autofluorescence assays, green channel, the four conditions taken together. As to conditions: for autofluorescence activity: example structures of SOM clusters 209, 173, 117. Here is the method:
(§3) Three assay platforms were applied to analyze luciferase and fluorescence interference patterns using the Tox21 chemical screening library.
(§4) HepG2 and HEK-293 cells were purchased from American Type Culture Collection (ATCC, Manassas, VA). HepG2 cells were cultured in Eagle’s Minimum Essential Medium (EMEM, ATCC) and HEK-293 cells in Dulbecco’s Modified Eagle’s Medium (DMEM, Life Technologies Corporation, Carlsbad, CA), and both supplemented with 10% Hyclone’s Fetal Bovine Serum (ThermoFisher Scientific, Waltham, MA), and 100 U/ml penicillin-100 µg/ml streptomycin (Life Technologies Corporation). Cells were cultured and maintained at 37 °C under a humidified atmosphere and 5% CO2.
(§5) HepG2 and HEK-293 cells were dispensed at 2,000/well in 5 µL of the culture medium into 1,536-well black/clear plates using a Multidrop™ Combi Reagent dispenser (ThermoFisher Scientific). In parallel, 5 µL/well of culture medium only were dispensed into 1,536-well black/clear plates. […] After respective incubation times, 23 nL of the compounds dissolved in DMSO, positive controls (fluorescein-green, triamterene-blue, and rose bengal-red) were transferred to the assay plates using Pintool station (Wako, San Diego, CA). […] Data were expressed as relative fluorescence units.
(§6) Analysis of compound concentration-response data was performed as previously described. Briefly, raw plate reads for each titration point were first normalized and then corrected by applying a pattern correction algorithm using compound-free control plates (DMSO plates)[22]. […] When normalizing to the positive control, the positive control response was set to 100% and negative control to 0% as follows: Activity(%)=([Vc−VDMSO]/[Vpos−VDMSO])×100, where Vc denotes the compound well values, Vpos denotes the median value of the positive control wells, and VDMSO denotes the median values of the DMSO-only wells. […] The following formula was used to normalize data to the negative control: Activity(%)=([Vc−VDMSO]/[VDMSO])×100 Concentration-response titration points for each compound were fitted to the Hill equation and concentrations of half-maximal activity (AC50) and maximal response (efficacy) values were calculated. Concentration response curves were designated as class 1–4 based on the quality of the fit, the number of points above background, and the response efficacy, as previously described (summarized in Supporting Information Table S1)[18],[20].
Finally, for autofluorescence assays, to avoid indications of generalized cell stress without specific biomolecular interactions, only AC50 below the burst cutoff defined in[23] were considered. […]

Experiment [2] concerns HepG2 and HEK-293. Kind of experiment: Autofluorescence assays, all channels and culture conditions taken together. The conditions noted are these: for autofluorescence activity specific to one cell culture: among chemicals active within wavelengths, Fig. 8. As to the method:
as §1, §4
(§7) HepG2 and HEK-293 cells were dispensed at 2,000/well in 5 µL of the culture medium into 1,536-well black/clear plates using a Multidrop™ Combi Reagent dispenser (ThermoFisher Scientific). In parallel, 5 µL/well of culture medium only were dispensed into 1,536-well black/clear plates. […] After respective incubation times, 23 nL of the compounds dissolved in DMSO, positive controls (fluorescein-green, triamterene-blue, and rose bengal-red) were transferred to the assay plates using Pintool station (Wako, San Diego, CA). […] The fluorescence intensity was measured using an Envision plate reader (Perkin Elmer, Waltham, MA) by using excitation/emission filters at 485/535 nm, 405/460 nm, and 540/590 nm for green, blue and red channels respectively. Data were expressed as relative fluorescence units. Each test compound was measured at 5 concentrations ranging from to 29 nM to 92 µM.
as §6
Finally, for autofluorescence assays, to avoid indications of generalized cell stress without specific biomolecular interactions, only AC50 below the burst cutoff defined in[23] were considered. Indeed, activity above this limit may result from triggering cell stress pathways, chemical reactivity, physico-chemical disruption of proteins or membranes, or broad low-affinity non-covalent interactions and not from a specific technology interference reaction. […]

In experiment [3] the test system is HepG2 and HEK-293. Kind of experiment: Autofluorescence assays, red channel, the four conditions taken together. Here is the method: as §1, §4, §7
as §6, with “Concentration response curves were designated as class 1–4 based on the quality of the fit, the number of points above background, and the response efficacy, as previously described (summarized in Supporting Information Table S1)[18],[20].” left out

In experiment [4] the test system is HepG2 and HEK-293. Description: Autofluorescence assays, blue channel, the four conditions taken together (HepG2/HEK-293, cell-based/cell-free). The conditions noted are these: for autofluorescence activity specific to culture condition: Fig. 8A. Here is the method: as §3, §4, §5, §6
as §2, with “stress.” for “stress. The distribution of the curve classes for active chemicals is presented in Supporting Information Fig. S1.”

A further experiment concerns HepG2 cells. Kind of experiment: Autofluorescence qHTS, HepG2 cell based, green channel. As to conditions: Homo sapiens, green spectrum, unit inferred. As to the method: as §1
(§8) HepG2 and HEK-293 cells were purchased from American Type Culture Collection (ATCC, Manassas, VA). […]
(§9) HepG2 and HEK-293 cells were dispensed at 2,000/well in 5 µL of the culture medium into 1,536-well black/clear plates using a Multidrop™ Combi Reagent dispenser (ThermoFisher Scientific). […] The fluorescence intensity was measured using an Envision plate reader (Perkin Elmer, Waltham, MA) by using excitation/emission filters at 485/535 nm, 405/460 nm, and 540/590 nm for green, blue and red channels respectively. Data were expressed as relative fluorescence units. Each test compound was measured at 5 concentrations ranging from to 29 nM to 92 µM.
(§10) Analysis of compound concentration-response data was performed as previously described. Briefly, raw plate reads for each titration point were first normalized and then corrected by applying a pattern correction algorithm using compound-free control plates (DMSO plates)[22]. […]

The subject of the next experiment is HEK-293 cells. Kind of experiment: Autofluorescence qHTS, HEK-293 cell based, green channel. The conditions noted are these: Homo sapiens; Hek293 cell based, green spectrum; unit inferred. Here is the method:
as §1, §8, §9, §10

Setting [5] is: all four assay conditions, read-out: AC50s.

Read-outs that look alike come from different tables or passages of the source. Where only a bound is given, the exact number is not on record here.

T1 sequence (P08659 whole entry): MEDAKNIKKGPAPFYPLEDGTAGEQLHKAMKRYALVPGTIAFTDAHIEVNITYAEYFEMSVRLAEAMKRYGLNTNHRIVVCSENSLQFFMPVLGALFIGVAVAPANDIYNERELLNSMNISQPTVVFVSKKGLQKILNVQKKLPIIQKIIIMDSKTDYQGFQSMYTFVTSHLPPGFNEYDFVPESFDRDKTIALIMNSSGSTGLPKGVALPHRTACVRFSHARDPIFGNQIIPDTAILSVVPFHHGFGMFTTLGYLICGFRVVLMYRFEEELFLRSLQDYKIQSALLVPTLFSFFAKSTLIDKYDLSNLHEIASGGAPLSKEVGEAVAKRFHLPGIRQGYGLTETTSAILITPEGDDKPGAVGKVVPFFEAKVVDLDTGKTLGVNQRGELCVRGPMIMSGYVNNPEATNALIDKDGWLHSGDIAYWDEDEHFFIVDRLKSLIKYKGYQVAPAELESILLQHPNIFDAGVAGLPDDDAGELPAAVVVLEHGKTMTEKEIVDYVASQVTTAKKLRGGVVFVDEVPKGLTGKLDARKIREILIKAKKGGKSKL

As for `[O-][n+]1ccccc1S` [13463-41-7], the IC50 at firefly-Luciferase (after filtering, no unit printed in the sheet, read-out: Luc_IC50) was determined as 481 nM. With `O=C1CCCO1` [Chemical 32], the autofluorescence activity entry in the experiment on HepG2 and HEK-293 [1] is “Active”; with HepG2 and HEK-293 [2] (green and red channel, SOM cluster 209), “autofluorescent in both the green and red channel”.

As to `CC(CO)NC(=O)C1C=C2c3cccc4[nH]cc(c34)CC2N(C)C1` (centres unmarked) [Chemical 36], in the experiment on HepG2 and HEK-293 [1], the autofluorescence activity result is given as “actives”. As for `O=C(O)CCCc1ccc(N(CCCl)CCCl)cc1` [Chemical 44], the autofluorescence activity result with HepG2 and HEK-293 [3] (example structures of SOM clusters 194 (219 in Fig. 6) and 143) is listed as “actives”. With `CCCNC(=O)NS(=O)(=O)c1ccc(Cl)cc1` [Chemical 49], the “autofluorescence activity specific to one cell culture” value with HepG2 and HEK-293 [2] is “active only on HEK-293”. Take `OC[C@H]1O[C@@H]2O[C@H]3[C@H](O)[C@@H](O)[C@@H](O[C@H]4[C@H](O)[C@@H](O)[C@@H](O[C@H]5[C@H](O)[C@@H](O)[C@@H](O[C@H]6[C@H](O)[C@@H](O)[C@@H](O[C@H]7[C@H](O)[C@@H](O)[C@@H](O[C@H]8[C@H](O)[C@@H](O)[C@@H](O[C@H]1[C@H](O)[C@H]2O)O[C@@H]8CO)O[C@@H]7CO)O[C@@H]6CO)O[C@@H]5CO)O[C@@H]4CO)O[C@@H]3CO` [Chemical 58]: the “autofluorescence activity specific to culture condition” value in the experiment with HepG2 and HEK-293 [4] is “active only in the HEK-293 cell-free condition”. Still for that read-out and setting: then `O=C1CCCCC1` [Chemical 59], with “active only in the HEK-293 cell-free condition”. Consider `CN(C)N=Nc1nc[nH]c1C(N)=O` [Chemical 63], for which, in the experiment on HepG2 and HEK-293 [2], the “autofluorescence activity specific to one cell culture” value is listed as “active specifically on the HepG2 culture”. Still for that read-out and setting: the result for `Nc1ccc(N)cc1` [Chemical 77] reads “active only on HEK-293”; that for `Nc1ccc(N)c2ccccc12` [Chemical 79], “active specifically on the HepG2 culture”.

`O=C(O)c1cccc(-c2noc(-c3ccccc3F)n2)c1` [PTC-124, Ataluren] returned a response curve class at firefly-Luciferase of −1.1. For the same molecule, the IC50 on firefly-Luciferase (estimated, based on triplicate measurements, read-out: IC50) was under 20 nM. Besides, the values for the half-maximal activity concentration (AC50) on firefly-Luciferase (set1), on firefly-Luciferase (set2) and on firefly-Luciferase (set3) were 0.00871 µM, 0.0195 µM and 0.0195 µM, respectively. As for `O=C1OC2(c3ccc(O)cc3Oc3cc(O)ccc32)c2ccccc21` [fluorescein], the AC50 was 3.16 µM in the experiment on HepG2 cells and 2820 nM in the experiment with HEK-293 cells. This molecule also registered a curve class in the experiment with HepG2 and HEK-293 [1] (all four assay conditions) of 1.1. Besides, the EC50 in the experiment on HepG2 and HEK-293 [1] (setting [5]) is under 4 µM. For the molecule rose bengal, in the experiment on HepG2 and HEK-293 [3] (all four assay conditions), the response curve class came to 2.1. Also, the EC50 with HepG2 and HEK-293 [3] (setting [5]) is under 12 µM. The efficacy with HepG2 and HEK-293 [3] (incomplete response) is reported as over 80%.

In turn, triamterene [Tiramterene] returned a response curve class in the experiment on HepG2 and HEK-293 [4] (all four assay conditions) of 2.1. Besides, in the experiment with HepG2 and HEK-293 [4] (setting [5]), the EC50 is under 40 µM. Also, the efficacy in the experiment with HepG2 and HEK-293 [4] (incomplete response) was over 80%.

Values taken from publication PMC7055224, “High-Throughput Screening to Predict Chemical-Assay Interference” (Scientific Reports, 2020).
